# Measured values: patent US20230107642A1 (Erasca, Inc., priority 2020, published 2023)
# Molecular target: T1, Cys12 of the KRAS 4B G12C protein (Homo sapiens, UniProt P01116, G12C)
# T1 construct: This protein contained 188 amino acids in total, including an N-terminal 6-Histidine tag; made in house; host or cells: E. coli BL21
# Test: In vitro covalent adduct formation (CAF) assay, LC-MS intact mass
# Type: binding
# Conditions: 10 uM compound, 60 min
# Summary of the method: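 GDP-loaded (>95%) His-TEV-tagged KRAS 4B G12C (residues 1–169), 5 μM in TBS pH 7.4, incubated with 10 μM compound (4% DMSO) at 22° C for one hour. Intact-protein LC-MS gave free:adduct ratios, reported as percent protein modified; duplicate runs.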
row,% CAF 10 uM @ 60 min [%],Structure (SMILES)
1,73,"C=CC(=O)N1[C@H](C)CN(c2nc(=O)n3c4c(c(-c5cc(Cl)c(F)cc5F)c(C(F)(F)F)cc24)SC[C@@H]3CN2CC[C@H](F)C2)C[C@@H]1C (atropisomer, axis not shown) [Example 1439, (3S,10R)-7-((3S,5R)-4-acryloyl-3,5-dimethylpiperazin-1-yl)-10-(5-chloro-2,4-difluorophenyl)-3-(((S)-3-fluoropyrrolidin-1-yl)methyl)-9-(trifluoromethyl)-2,3-dihydro-5H-[1,4]thiazino[2,3,4-ij]quinazolin-5-one]"
2,99,"C=CC(=O)N1CCN(c2nc(=O)n3c4c(c(-c5cc(Cl)c(F)cc5F)c(C(F)(F)F)cc24)SC[C@@H]3CN2CCN(CC)CC2)CC1 (atropisomer, axis not shown) [Example 1338, (3S,10R)-7-(4-acryloylpiperazin-1-yl)-10-(5-chloro-2,4-difluorophenyl)-3-((4-ethylpiperazin-1-yl)methyl)-9-(trifluoromethyl)-2,3-dihydro-5H-[1,4]thiazino[2,3,4-ij]quinazolin-5-one]"
3,96.1,"C=CC(=O)N1C[C@H](C)N(c2nc(=O)n3c4c(c(-c5ccc(F)cc5F)c(C(F)(F)F)cc24)SC[C@@H]3CN2C[C@@H]3C[C@H]2CO3)C[C@H]1C (atropisomer, axis not shown) [Example 1323, (3S,10R)-3-(((1S,4S)-2-oxa-5-azabicyclo[2.2.1]heptan-5-yl)methyl)-7-((2S,5R)-4-acryloyl-2,5-dimethylpiperazin-1-yl)-10-(2,4-difluorophenyl)-9-(trifluoromethyl)-2,3-dihydro-5H-[1,4]thiazino[2,3,4-ij]quinazolin-5-one]"

# Further lines, the molecule ahead of its results:
row,Structure (SMILES),% CAF 10 uM @ 60 min [%]
1,"C=CC(=O)N1CCN(c2nc(=O)n3c4c(c(-c5cc(Cl)c(F)cc5F)c(C(F)(F)F)cc24)SC[C@@H]3CN2C[C@@H]3C[C@H]2CO3)CC1 (atropisomer, axis not shown) [Example 1341, (3S,10R)-3-(((1S,4S)-2-oxa-5-azabicyclo[2.2.1]heptan-5-yl)methyl)-7-(4-acryloylpiperazin-1-yl)-10-(5-chloro-2,4-difluorophenyl)-9-(trifluoromethyl)-2,3-dihydro-5H-[1,4]thiazino[2,3,4-ij]quinazolin-5-one]",97.4
2,"C=CC(=O)N1C[C@H](C)N(c2nc(=O)n3c4c(c(-c5cccc6cnn(C)c56)c(C(F)(F)F)cc24)SC[C@@H]3CN2CCN(C3CC3)CC2)C[C@H]1C (atropisomer, axis not shown) [Example 1388, (3S,10S)-7-((2S,5R)-4-acryloyl-2,5-dimethylpiperazin-1-yl)-3-((4-cyclopropylpiperazin-1-yl)methyl)-10-(1-methyl-1H-indazol-7-yl)-9-(trifluoromethyl)-2,3-dihydro-5H-[1,4]thiazino[2,3,4-ij]quinazolin-5-one]",95.3
3,"C=CC(=O)N1[C@H](C)CN(c2nc(=O)n3c4c(c(-c5ccc(F)cc5)c(C(F)(F)F)cc24)SCC(COC)(COC)C3)C[C@@H]1C [Example 1409, 8-((3S,5R)-4-acryloyl-3,5-dimethylpiperazin-1-yl)-11-(4-fluorophenyl)-3,3-bis(methoxymethyl)-10-(trifluoromethyl)-3,4-dihydro-[1,4]thiazepino[2,3,4-ij]quinazolin-6(2H)-one]",96.5
4,"[2H]C([2H])=C([2H])C(=O)N1[C@H](C)CN(c2nc(=O)n3c4c(c(-c5cc(Cl)c(F)cc5F)c(C(F)(F)F)cc24)SC[C@@H]3COC)C[C@@H]1C (atropisomer, axis not shown) [Example 1392, (3S,10S)-7-((3S,5R)-4-(acryloyl-d3)-3,5-dimethylpiperazin-1-yl)-10-(5-chloro-2,4-difluorophenyl)-3-(methoxymethyl)-9-(trifluoromethyl)-2,3-dihydro-5H-[1,4]thiazino[2,3,4-ij]quinazolin-5-one]",64.9

# Same assay, conditions: 10 uM compound, 60 min incubation
row,Structure (SMILES),% CAF 10 uM @ 60 min [%]
1,"C=CC(=O)N1[C@H](C)CN(c2nc(=O)n3c4c(c(-c5ccc(F)cc5)c(C(F)(F)F)cc24)SC[C@H](N2CCCC2)C3)C[C@@H]1C [Example 1118, (R)-8-((3S,5R)-4-acryloyl-3,5-dimethylpiperazin-1-yl)-11-(4-fluorophenyl)-3-(pyrrolidin-1-yl)-10-(trifluoromethyl)-3,4-dihydro-2H,6H-[1,4]thiazepino [2,3,4-ij]quinazolin-6-one]",95.7

# Same assay, conditions: 10 μM compound, after 1 hour
row,CAF (% after 1 hour) [%],Structure (SMILES)
1,95,"C=CC(=O)N1[C@H](C)CN(c2nc(=O)n3c4c(c(-c5ccc(F)cn5)c(C(F)(F)F)cc24)SC[C@@H](OC)C3)C[C@@H]1C [Example 1207, (S)-8-((3S,5R)-4-acryloyl-3,5-dimethylpiperazin-1-yl)-11-(5-fluoropyridin-2-yl)-3-methoxy-10-(trifluoromethyl)-3,4-dihydro-2H,6H-[1,4]thiazepino[2,3,4-ij]quinazolin-6-one]"
2,96,"C=CC(=O)N1[C@H](C)CN(c2nc(=O)n3c4c(c(-c5ccc(F)cc5)c(C(F)(F)F)cc24)SC[C@@H](NS(C)(=O)=O)C3)C[C@@H]1C [Example 1224, N—((S)-8-((3S,5R)-4-Acryloyl-3,5-dimethylpiperazin-1-yl)-11-(4-fluorophenyl)-6-oxo-10-(trifluoromethyl)-3,4-dihydro-2H,6H-[1,4]thiazepino[2,3,4-ij]quinazolin-3-yl)methanesulfonamide]"

# Further lines, the molecule ahead of its results:
row,Structure (SMILES),CAF (% after 1 hour) [%]
1,"[2H]C([2H])([2H])O[C@@H]1CSc2c(-c3ccc(F)cc3)c(C(F)(F)F)cc3c(N4C[C@@H](C)N(C(=O)C=C)[C@@H](C)C4)nc(=O)n(c23)C1 [Example 1229, (S)-8-((3S,5R)-4-acryloyl-3,5-dimethylpiperazin-1-yl)-11-(4-fluorophenyl)-3-(methoxy-d3)-10-(trifluoromethyl)-3,4-dihydro-2H,6H-[1,4]thiazepino[2,3,4-ij]quinazolin-6-one]",96
2,"C=CC(=O)N1[C@H](C)CN(c2nc(=O)n3c4c(c(-c5nc(N)c(F)cc5F)c(C(F)(F)F)cc24)SC[C@@H](OC)C3)C[C@@H]1C [Example 1242, (3S)-8-((3S,5R)-4-acryloyl-3,5-dimethylpiperazin-1-yl)-11-(6-amino-3,5-difluoropyridin-2-yl)-3-methoxy-10-(trifluoromethyl)-3,4-dihydro-2H,6H-[1,4]thiazepino[2,3,4-ij]quinazolin-6-one]",70

# Same assay, conditions: after 60 min
row,Structure (SMILES),CAF (% binding after 60 min) [%]
1,"C=CC(=O)N1[C@H](C)CN(c2nc(=O)n3c4c(c(-c5ccc(F)cc5)c(C(F)(F)F)cc24)SC[C@@H](OCCN(C)C)C3)C[C@@H]1C [Example 1033, (S)-8-((3S,5R)-4-acryloyl-3,5-dimethylpiperazin-1-yl)-3-(2-(dimethylamino)ethoxy)-11-(4-fluorophenyl)-10-(trifluoromethyl)-3,4-dihydro-2H,6H-[1,4]thiazepino[2,3,4-ij]quinazolin-6-one]",96
2,"C=CC(=O)N1[C@H](C)CN(c2nc(=O)n3c4c(c(-c5ccc(F)cc5F)c(C(F)(F)F)cc24)SC[C@H](OCOC)C3)C[C@@H]1C [Example 1011, (3R)-8-((3S,5R)-4-acryloyl-3,5-dimethylpiperazin-1-yl)-11-(2,4-difluorophenyl)-3-(methoxymethoxy)-10-(trifluoromethyl)-3,4-dihydro-2H,6H-[1,4]thiazepino[2,3,4-ij]quinazolin-6-one]",97
